In patent US20220324835A1 (Nurix Therapeutics, Inc., priority 2018, published 2022):

Assays:
[1] = system: T-cell; assay: IL-2 secretion from T-cells stimulated with anti-CD3 antibody alone (Biological Example 2); assay type: cell-based; conditions: primary human total T-cells, read-out: IL-2 secretion, Anti-CD3 stimulation, fold change over baseline; for fold induction at 1 µM: 1 μM compound; for fold induction at 8 µM: 8 μM compound
[2] = system: T-cell; assay: IL-2 secretion from T-cells co-stimulated with anti-CD3 and anti-CD28 antibody (Biological Example 2); assay type: cell-based, human; conditions: Homo sapiens, T-cell, primary human total T-cells, baseline = anti-CD3/anti-CD28 stimulated cells without inhibitor, read-out: IL-2 secretion, Anti-CD3/Anti-CD28 stimulation, fold change over baseline; for fold induction at 0.3 µM: 0.3 μM compound; for fold induction at 1 µM: 1 μM compound; for fold induction at 4 µM: 4 μM compound
Procedure, shortened: (§1)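 Values are fold-change over baseline: readings (IL-2 release, CD25 staining) from inhibitor-treated T-cells divided against untreated cells […]. No detailed procedure stated.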

[3] = system: T-cell; assay: CD25 cell surface staining on T-cells stimulated with anti-CD3 antibody alone (Biological Example 2); assay type: cell-based; conditions: primary human total T-cells, baseline = anti-CD3/anti-CD28 stimulated cells without inhibitor, read-out: CD25 staining, Anti-CD3 stimulation, fold change over baseline; for fold induction at 1 µM: 1 μM compound; for fold induction at 8 µM: 8 μM compound
[4] = target: T1, Cbl-b (Homo sapiens, UniProt Q13191); assay: Cbl-b inhibition assay (Cbl-b activity assay, FRET, Biological Example 1; 100 mM NaCl, 60 nM Src kinase); assay type: biochemical; conditions: upper bound stated in text lists; read-out: IC50 values in the Cbl-b inhibition assay of Biological Example 1
Procedure, shortened: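 TR-FRET assay using N-terminal biotinylated Avi-tagged Cbl-b bound to streptavidin-terbium, Src kinase for Cbl-b phosphorylation, and UbcH5B irreversibly conjugated to Bodipy-Fluorescein-ubiquitin. Phosphorylated Cbl-b binds UbcH5B-Ub, bringing the fluorophores together; inhibition is read as loss of FRET signal.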

[5] = target: T1, Cbl-b; assay: Cbl-b activity assay (Cbl-b inhibition assay), TR-FRET of Cbl-b interaction with UbcH5B-Ub; assay type: biochemical; conditions: assay buffer with 100 mM NaCl, 60 nM Src kinase; read-out: Cbl-b activity IC50
Procedure, shortened: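 Compound-treated Cbl-b was incubated 1.5 h with Src kinase (60 nM final; 30 nM for asterisked values, which also used 50 mM instead of 100 mM NaCl), 1 mM ATP and 5 mM MgCl2. Binding to fluorescent Ub-loaded UbcH5B (C85K mutant) was then read by TR-FRET after 1 h more.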

[6] = system: T-cell; assay: CD25 cell surface staining on T-cells co-stimulated with anti-CD3 and anti-CD28 antibody (Biological Example 2); assay type: cell-based, human; conditions: Homo sapiens, T-cell, primary human total T-cells, baseline = anti-CD3/anti-CD28 stimulated cells without inhibitor, read-out: CD25 staining, Anti-CD3/Anti-CD28 stimulation, fold change over baseline; for fold induction at 0.3 µM: 0.3 μM compound; for fold induction at 1 µM: 1 μM compound; for fold induction at 4 µM: 4 μM compound
Procedure, shortened: as §1

T1 sequence (Q13191 36-427): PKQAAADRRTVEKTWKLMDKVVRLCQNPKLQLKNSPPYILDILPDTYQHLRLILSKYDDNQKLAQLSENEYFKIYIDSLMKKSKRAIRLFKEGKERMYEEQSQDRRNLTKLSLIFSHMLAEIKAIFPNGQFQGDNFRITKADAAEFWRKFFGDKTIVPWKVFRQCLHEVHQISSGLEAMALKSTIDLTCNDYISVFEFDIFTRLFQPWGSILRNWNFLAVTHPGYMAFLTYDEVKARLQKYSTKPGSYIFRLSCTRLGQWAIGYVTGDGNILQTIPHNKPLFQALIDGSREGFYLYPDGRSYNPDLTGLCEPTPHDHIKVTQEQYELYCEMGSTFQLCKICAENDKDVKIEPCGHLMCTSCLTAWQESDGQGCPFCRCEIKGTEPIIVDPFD

Cn1cnnc1CC1(c2cccc(NC(=O)c3cc(CN4CCC4)nc(C4CC4)n3)c2)COC1 [Compound 504, 6-(azetidin-1-ylmethyl)-2-cyclopropyl-N-(3-{3-[(4-methyl-1,2,4-triazol-3-yl)methyl]oxetan-3-yl}phenyl)pyrimidine-4-carboxamide]
fold induction at 1 µM [1]: 0.051 to 0.1 | fold induction at 0.3 µM [2]: 2.51 to 5 | fold induction at 1 µM [2]: 5 to 7.5 | fold induction at 1 µM [3]: 0.801 to 1 | IC50 [4]: ≤ 100 nM | IC50 [5]: < 100 nM | fold induction at 0.3 µM [6]: 1.01 to 1.3 | fold induction at 1 µM [6]: 1.31 to 1.5

C[C@H](Cc1nncn1C)c1cccc(N2Cc3c(cc([C@H](C)N4CC[C@H](F)C4)cc3C(F)(F)F)C2=O)c1 [Compound 404, 6-((S)-1-((S)-3-fluoropyrrolidin-1-yl)ethyl)-2-(3-((R)-1-(4-methyl-4H-1,2,4-triazol-3-yl)propan-2-yl)phenyl)-4-(trifluoromethyl)isoindolin-1-one]
fold induction at 1 µM [1]: > 0.201 | fold induction at 8 µM [1]: > 0.201 | fold induction at 0.3 µM [2]: > 7.5 | fold induction at 1 µM [2]: > 7.5 | fold induction at 4 µM [2]: > 7.5 | fold induction at 1 µM [3]: > 1 | fold induction at 8 µM [3]: > 1 | IC50 [4]: ≤ 100 nM | IC50 [5]: < 100 nM | fold induction at 0.3 µM [6]: 1.31 to 1.5 | fold induction at 1 µM [6]: 1.31 to 1.5 | fold induction at 4 µM [6]: 1.31 to 1.5

Cn1cnnc1CC1(c2cccc(N3Cc4c(cc(CN5CC(C#N)C5)cc4C(F)(F)F)C3=O)c2)COC1 [Compound 423, 1-((2-(3-(3-((4-methyl-4H-1,2,4-triazol-3-yl)methyl)oxetan-3-yl)phenyl)-3-oxo-7-(trifluoromethyl)isoindolin-5-yl)methyl)azetidine-3-carbonitrile]
fold induction at 1 µM [1]: 0.151 to 0.2 | fold induction at 8 µM [1]: > 0.201 | fold induction at 0.3 µM [2]: 2.51 to 5 | fold induction at 1 µM [2]: 5 to 7.5 | fold induction at 4 µM [2]: > 7.5 | fold induction at 1 µM [3]: 0.801 to 1 | fold induction at 8 µM [3]: > 1 | IC50 [4]: ≤ 100 nM | IC50 [5]: < 100 nM | fold induction at 0.3 µM [6]: 1.01 to 1.3 | fold induction at 1 µM [6]: 1.01 to 1.3 | fold induction at 4 µM [6]: 1.31 to 1.5

Cn1cnnc1CC1(c2cccc(NC(=O)c3nc(C4CC4)cs3)c2)COC1 [Compound 493, 4-cyclopropyl-N-(3-{3-[(4-methyl-1,2,4-triazol-3-yl)methyl]oxetan-3-yl}phenyl)-1,3-thiazole-2-carboxamide]
fold induction at 1 µM [1]: < 0.05 | fold induction at 0.3 µM [2]: < 1 | fold induction at 1 µM [2]: 1.01 to 2.5 | fold induction at 1 µM [3]: < 0.6 | IC50 [4]: ≤ 1000 nM | IC50 [5]: 301 to 1000 nM | fold induction at 0.3 µM [6]: 1.01 to 1.3 | fold induction at 1 µM [6]: 1.01 to 1.3

Cn1cnnc1CC1(c2cccc(NC(=O)c3csc(C(F)(F)F)n3)c2)COC1 [Compound 492, N-(3-{3-[(4-methyl-1,2,4-triazol-3-yl)methyl]oxetan-3-yl}phenyl)-2-(trifluoromethyl)-1,3-thiazole-4-carboxamide]
fold induction at 1 µM [1]: 0.051 to 0.1 | fold induction at 0.3 µM [2]: 1.01 to 2.5 | fold induction at 1 µM [2]: 1.01 to 2.5 | fold induction at 1 µM [3]: 0.601 to 0.8 | IC50 [4]: ≤ 100 nM | IC50 [5]: < 100 nM | fold induction at 0.3 µM [6]: 1.01 to 1.3 | fold induction at 1 µM [6]: 1.01 to 1.3

Cn1cnnc1[C@@H]1C[C@@H]1c1cccc(N2Cc3c(cc(CN4CC[C@H](F)C4)cc3C(F)(F)F)C2=O)c1 [Compound 409, 6-(((S)-3-fluoropyrrolidin-1-yl)methyl)-2-(3-((1S,2R)-2-(4-methyl-4H-1,2,4-triazol-3-yl)cyclopropyl)phenyl)-4-(trifluoromethyl)isoindolin-1-one]
fold induction at 1 µM [1]: > 0.201 | fold induction at 8 µM [1]: > 0.201 | fold induction at 0.3 µM [2]: 2.51 to 5 | fold induction at 1 µM [2]: > 7.5 | fold induction at 4 µM [2]: > 7.5 | fold induction at 1 µM [3]: > 1 | fold induction at 8 µM [3]: > 1 | IC50 [4]: ≤ 100 nM | IC50 [5]: < 100 nM | fold induction at 0.3 µM [6]: 1.31 to 1.5 | fold induction at 1 µM [6]: 1.31 to 1.5 | fold induction at 4 µM [6]: 1.51 to 1.75

C[C@@H]1CN(C)CCN1c1cc2c(c(C(F)(F)F)c1)CN(c1cccc([C@@](C)(F)C(F)(F)c3nncn3C)c1)C2=O [Compound 443, 6-((R)-2,4-Dimethylpiperazin-1-yl)-2-(3-((R)-1,1,2-trifluoro-1-(4-methyl-4H-1,2,4-triazol-3-yl)propan-2-yl)phenyl)-4-(trifluoromethyl)isoindolin-1-one]
fold induction at 1 µM [1]: < 0.05 | fold induction at 8 µM [1]: 0.101 to 0.15 | fold induction at 0.3 µM [2]: 1.01 to 2.5 | fold induction at 1 µM [2]: 1.01 to 2.5 | fold induction at 4 µM [2]: 2.51 to 5 | fold induction at 1 µM [3]: 0.801 to 1 | fold induction at 8 µM [3]: > 1 | IC50 [4]: ≤ 100 nM | IC50 [5]: < 100 nM | fold induction at 0.3 µM [6]: 1.01 to 1.3 | fold induction at 1 µM [6]: 1.01 to 1.3 | fold induction at 4 µM [6]: 1.31 to 1.5

Cn1cnnc1CC1(c2cccc(N3Cc4c(cccc4C(F)(F)F)C3=O)c2)CC(F)(F)C1 [Compound 527, 2-(3-(3,3-difluoro-1-((4-methyl-4H-1,2,4-triazol-3-yl)methyl)cyclobutyl)-phenyl)-4-(trifluoromethyl)isoindolin-1-one]
fold induction at 1 µM [1]: > 0.201 | fold induction at 0.3 µM [2]: 2.51 to 5 | fold induction at 1 µM [2]: 5 to 7.5 | fold induction at 1 µM [3]: > 1 | IC50 [4]: ≤ 100 nM | IC50 [5]: < 100 nM | fold induction at 0.3 µM [6]: 1.01 to 1.3 | fold induction at 1 µM [6]: 1.01 to 1.3

C[C@H]1CN(C)CCN1c1cc2c(c(C(F)(F)F)c1)CN(c1cccc(C3(Cc4nncn4C)COC3)c1)C2=O [Compound 389, (S)-6-(2,4-Dimethylpiperazin-1-yl)-2-(3-(3-((4-methyl-4H-1,2,4-triazol-3-yl)methyl)oxetan-3-yl)phenyl)-4-(trifluoromethyl)isoindolin-1-one]
fold induction at 1 µM [1]: > 0.201 | fold induction at 0.3 µM [2]: 5 to 7.5 | fold induction at 1 µM [2]: > 7.5 | fold induction at 1 µM [3]: > 1 | IC50 [4]: ≤ 100 nM | IC50 [5]: < 100 nM | fold induction at 0.3 µM [6]: 1.01 to 1.3 | fold induction at 1 µM [6]: 1.31 to 1.5

Cn1cnnc1C[C@]1(c2cccc(N3Cc4c(cc(CN5CCC6(CC6)C5)cc4C(F)(F)F)C3=O)c2)CCOC1 (single isomer, unassigned) [Compound 517b]
fold induction at 1 µM [1]: > 0.201 | fold induction at 0.3 µM [2]: > 7.5 | fold induction at 1 µM [2]: > 7.5 | fold induction at 1 µM [3]: > 1 | IC50 [4]: ≤ 100 nM | IC50 [5]: < 100 nM | fold induction at 0.3 µM [6]: 1.01 to 1.3 | fold induction at 1 µM [6]: 1.01 to 1.3

Cn1cnnc1CC1(c2cccc(NC(=O)c3csc(C4CC4)n3)c2)COC1 [Compound 494, 2-cyclopropyl-N-(3-{3-[(4-methyl-1,2,4-triazol-3-yl)methyl]oxetan-3-yl}phenyl)-1,3-thiazole-4-carboxamide]
fold induction at 1 µM [1]: 0.051 to 0.1 | fold induction at 0.3 µM [2]: 1.01 to 2.5 | fold induction at 1 µM [2]: 1.01 to 2.5 | fold induction at 1 µM [3]: 0.601 to 0.8 | IC50 [4]: ≤ 300 nM | IC50 [5]: 100 to 300 nM | fold induction at 0.3 µM [6]: 1.01 to 1.3 | fold induction at 1 µM [6]: 1.01 to 1.3

C[C@H](c1cc2c(c(C(F)(F)F)c1)CN(c1cccc(C3(Cc4nncn4C)COC3)c1)C2=O)N1C[C@H]2C[C@H]2C1 [Compound 541b, 6-((1R)-1-(3-azabicyclo[3.1.0]hexan-3-yl)ethyl)-2-(3-(3-((4-methyl-4H-1,2,4-triazol-3-yl)methyl)oxetan-3-yl)phenyl)-4-(trifluoromethyl)isoindolin-1-one]
fold induction at 1 µM [1]: > 0.201 | fold induction at 0.3 µM [2]: > 7.5 | fold induction at 1 µM [2]: > 7.5 | fold induction at 1 µM [3]: > 1 | IC50 [4]: ≤ 100 nM | IC50 [5]: < 100 nM | fold induction at 0.3 µM [6]: 1.31 to 1.5 | fold induction at 1 µM [6]: 1.31 to 1.5

Cn1cnnc1CC1(c2cccc(NC(=O)c3cc(CN4CC[C@H](O)C4)nc(C4CC4)n3)c2)COC1 [Compound 505, 2-cyclopropyl-6-{[(3S)-3-hydroxypyrrolidin-1-yl]methyl}-N-(3-{3-[(4-methyl-1,2,4-triazol-3-yl)methyl]oxetan-3-yl}phenyl)pyrimidine-4-carboxamide]
fold induction at 1 µM [1]: 0.051 to 0.1 | fold induction at 0.3 µM [2]: 1.01 to 2.5 | fold induction at 1 µM [2]: 2.51 to 5 | fold induction at 1 µM [3]: 0.601 to 0.8 | IC50 [4]: ≤ 100 nM | IC50 [5]: < 100 nM | fold induction at 0.3 µM [6]: 1.01 to 1.3 | fold induction at 1 µM [6]: 1.01 to 1.3
